The target of one data set is α-synuclein fibrils (Homo sapiens (Human), UniProt P37840). The data set can be described thus: Thioflavin T fluorescence competitive assay. The following applies: for Ki: read-out: Thioflavin T assay Ki, competition with ThT on recombinant α-synuclein fibrils, at least three experiments.
The next data set addresses PD-seeded fibrils (Homo sapiens (Human), UniProt P37840). Kind of data set: Heterologous competition binding assay with [18F]TZ61-44 as radioligand. As to conditions: radioligand [18F]TZ61-44, 25 nM PD-seeded fibrils; for Ki: Cheng-Prusoff from EC50. The procedure: The equilibrium inhibitor constant (Ki) of a series of compounds was measured using heterologous radioactive binding assays with [^18F]TZ61-44, […], or [^125I]TZ61-84 as the screening radioligands. EC50 values for each compound were determined by fitting the data to the equation Y=Bottom+(Top−Bottom)/(1+(X−Log EC50)^−Hillcoefficient) using nonlinear regression by Kaleidagraph software, where Top and Bottom are the Y values for the top and bottom plateaus of the binding curve. The Ki values were derived from the EC50 values using the Cheng-Prusoff equation: Ki=EC50/(1+[radioligand]/Kd). FIGS. 5A-5E show the inhibition curves for TG-1-90B, TZ55-101, TZ61-84, TZ55-107, and TZ55-81 using [^18F]TZ61-44 as the radioligand. FIG. 11B-C show the inhibition curves for two separate experiments on PD fibrils for TZ55-101 using […] as the radioligand. FIGS. 12A-12F show the inhibition curves for TZ66-3, TZ64-015, TZ64-016, TZ64-018, TZ64-019, and TZ64-020 using [^18F]TZ61-44 as the radioligand. FIGS. 13A-13D show the inhibition curves for TZ66-9, TZ66-8, and TZ55-107 using [^18F]TZ61-44 as the radioligand.

In a further data set the target is Fibrils 4174 (Homo sapiens, UniProt P37840). Kind of data set: 3H radioligand competition, Fibrils 4174. Type of data set: binding. As to conditions: hot concentration 2 nM. How it is done: A series of compounds were synthesized and the Ki (nM) in the presence of Fibrils 4174, PD-seeded fibrils (using Tg-1-90B as the radioligand), AD Tissue 6843 and/or AD Tissue 2846 was determined. In each experiment, the “hot” concentration was 2 nM.

Data set [1] concerns the target Banner PD-seeded α-synuclein fibrils (Homo sapiens (Human), UniProt P37840). Kind of data set: Homologous competition radioligand binding assay, PD-seeded fibrils. How it is done: The equilibrium dissociation constant (Kd) for a series of compounds was determined using direct radioactive competitive binding assays (homologous or heterologous) with either recombinant α-synuclein fibrils or brain tissue homogenates from AD cases.
Recombinant protein was produced in E. coli using protocols based on previously described methods for α-synuclein [Giasson, B. I., et al., “Mutant and wild type human alpha-synucleins assemble into elongated filaments with distinct morphologies in vitro,” 1999, J Biol. Chem., 274:7619-7622; Huang, C., et al., “A new method for purification of recombinant human alpha-synuclein in Escherichia coli,” 2005, Protein Expr Purif, 42:173-177; Yu, L., et al, “Synthesis and in vitro evaluation of á-synuclein ligands,” 2012, Bioorg. Med. Chem., 20:4625-4634] and tau [Li, W., et al., “Characterization of two VQIXXK motifs for tau fibrillization in vitro,” 2006, Biochemistry, 45:15692-15701]. BL21(DE3)RIL E. coli were transformed with a pRK172 bacterial expression plasmid containing the human α-synuclein coding sequence. […]. Overnight cultures were centrifuged at 3,900×g for 10 min at 25° C. and the bacterial pellets were resuspended by gentle vortexing in 20 ml osmotic shock buffer (30 mM Tris-HCl, 2 mM EDTA, 40% Sucrose, pH 7.2) and then incubated at room temperature for 10 min. The cell suspension was then centrifuged at 8,000×g for 10 min at 25° C. and the pellet was resuspended in 22.5 ml cold H2O before adding 9.4 μl 2 M MgCl2 to each tube. The suspension was incubated on ice for 3 min prior to centrifugation at 20,000×g for 15 min at 4° C. After the supernatant was transferred to a fresh tube, streptomycin was added to a final concentration of 10 mg/ml and centrifuged at 20,000×g for 15 min at 4° C. The supernatant from this step was collected and dithiothreitol (DTT) and Tris-HCl pH 8.0 were added to final concentrations of 1 mM and 20 mM respectively, before boiling for 10 min to precipitate heat-sensitive proteins, which were pelleted at 20,000×g for 15 min at 4° C. The supernatant was collected and filtered through a 0.45 μm surfactant-free cellulose acetate filter (Corning) before loading onto a 1 ml DEAE Sepharose column equilibrated in 20 mM Tris-HCl pH 8.0, 1 mM EDTA, and 1 mM DTT. The DEAE column was washed with 20 mM Tris-HCl pH 8.0, 1 mM EDTA, 1 mM DTT before eluting α-synuclein protein in 20 mM Tris-HCl pH 8.0 buffer with 1 mM EDTA, 1 mM DTT and 0.3 M NaCl. Purified α-synuclein protein was dialyzed overnight in 10 mM Tris-HCl pH 7.6, 50 mM NaCl, 1 mM DTT.
Purified recombinant α-synuclein monomer (2 mg/ml) was incubated in 20 mM Tris-HCl, pH 8.0, 100 mM NaCl for 72 h at 37 C with shaking at 1000 rpm in an Eppendorf Thermomixer. […] The concentration of α-synuclein monomer in the supernatant was determined in a BCA protein assay according to the manufacturer's instructions, using a bovine serum albumin (BSA) standard curve. The measured decrease in α-synuclein monomer concentration was used to determine the concentration of fibrils in the 72 h fibril reaction mixture. […]
These direct binding assays used a fixed concentration of either fibrils or PD/AD tissue and the radioligand (e.g., [^18F]28) and varying concentration ranges of corresponding homologous non-radiolabeled standard reference compound. […] Reactions were incubated at 37° C. for 1 h before quantifying bound radioligand. […]

Data set [2] can be described thus: MicroPET studies in the brain of nonhuman primate. The class given is in vivo. As to conditions: male adult cynomolgus macaca. How it is done:
9.93 mCi of [^18F]TZ61-44 was injected into a male adult cynomolgus macaca (9.25 Kg) 10.57 mCi of [^11C]TZ55-107 was injected into was injected into a male adult cynomolgus macaca (9.40 Kg) A simplified reference tissue model (SRTM) and spatially-constraint linear regression algorithm was used to generate R1 and DVR images (FIGS. 18A and 18B).
FIGS. 19A and 19B graphically depict the uptake of labeled TZ55-107 and TZ61-44 in the animals. [^18F]TZ61-44 had highest cortical uptake (SUV) of ˜3.48 at 4 min and the uptake ratio at 4 min versus 120 min reached ˜4.2 (FIG. 19A); [^11C]TZ55-107 had highest cortical uptake of ˜6.40 at 4 min, and the uptake ratio at 4 min versus 120 min reached ˜6.30 (FIG. 19B).

Several values for one entry are separate records, joined by “and”; a condition that tells them apart may be missing. Equal values may be shown once. Where only a bound is given, the exact number is not on record here.

Turning to `FCCOc1ccc2nc(-c3noc(-c4ccn5ccnc5c4)n3)ccc2c1` [Compound 33, 3-(6-(2-Fluoroethoxy)quinolin-2-yl)-5-(imidazo[1,2-c]pyridin-7-yl)-1,2,4-oxadiazole], the Ki at α-synuclein fibrils is greater than 1000 nM.

For the compound `COCOc1ccc2nc(-c3noc(-c4ccn5ccnc5c4)n3)ccc2c1` [Compound 34, 5-(Imidazo[1,2-c]pyridin-7-yl)-3-(6-(methoxymethoxy)-quinolin-2-yl)-1,2,4-oxadiazole], the Ki at α-synuclein fibrils was greater than 1000 nM. On to `COc1ccc2nc(-c3csc(C(C)=O)c3)ccc2c1` [TZ64-018], for which, on PD-seeded fibrils, the EC50 was found to be 127 nM and the Ki came out at 119 nM.

Regarding `COc1ccc2nc(-c3noc(-c4ccn5ccnc5c4)n3)ccc2c1` [Compound 31, 5-(Imidazo[1,2-c]pyridin-7-yl)-3-(6-methoxyquinolin-2-yl)-1,2,4-oxadiazole], the Ki at α-synuclein fibrils is greater than 1000 nM. For `COc1ccc(Nc2ccc3cc([N+](=O)[O-])ccc3n2)cn1` [TZ64-55], at α-synuclein fibrils, the “potency in Thioflavin T assay” value is “high potency” and the Ki is 15 nM. On PD-seeded fibrils, `COc1ccc(Nc2ccc3c(F)cccc3n2)cn1` [TZ64-015] showed an EC50 of 46 nM and a Ki of 43 nM.

With `COCOc1ccc2nc(-c3noc(-c4ccnc(OC)c4)n3)ccc2c1` [Compound 29, 3-(6-(Methoxymethoxy)quinolin-2-yl)-5-(2-methoxypyridin-4-yl)-1,2,4-oxadiazole], at α-synuclein fibrils, the Ki is greater than 1000 nM. In the case of `COc1ccc2nc(-c3noc(-c4ccc5c(c4)OCO5)n3)ccc2c1` [TZ46-136], the affinity on Fibrils 4174, expressed as Ki, was 162 nM. On the same count and under the same terms, the figure for `COc1ccc2cc(-c3noc(-c4ccnc(F)c4)n3)ccc2c1` [TZ46-102] is 203 nM. As for `COc1ccc(Nc2ccc3cc(Br)ccc3n2)cn1` [TZ64-105], on α-synuclein fibrils, the “potency in Thioflavin T assay” value is “high potency” and the Ki turned out to be 10 nM.

The compound `COc1ccc2nc(-c3noc(-c4cocn4)n3)ccc2c1` [TZ46-120] showed a Ki on Fibrils 4174 of 646 nM. For `COc1ccc2nc(-c3csc(C(=O)O)c3)ccc2c1` [TZ66-3], at PD-seeded fibrils, it took 78 nM to reach a half-maximal effect (EC50) and the affinity, expressed as Ki, was 73 nM. The matching figures for `COc1ccc(Nc2ccc3cc(F)ccc3n2)cn1` [TZ64-013]: 29 nM and 27 nM.

For `COc1cccc(-c2nc(-c3ccc4cc(OC)ccc4n3)no2)c1` [TZ46-139], the Ki on Fibrils 4174 turned out to be 222 nM.

As for `COc1ccc2nc(-c3csc(/C=N/O)c3)ccc2c1` [TZ66-16], at α-synuclein fibrils, the “potency in Thioflavin T assay” value is “high potency” and the Ki was 11 nM.

As to `COc1ccc2nc(Nc3ccnc(OC)c3)ccc2c1` [TZ55-107], the “binding affinity towards PD / α-synuclein fibrils” value in data set [1] (preliminary / initial competitive binding assays) is “good binding affinity”. For the same compound, the “selectivity” value in data set [1] (preliminary binding assays) is reported as “moderate selectivity”. On PD-seeded fibrils, the EC50 was 24 nM and 36 nM; the Ki was 22 nM and 34 nM. Also, in data set [2] (brain cortex, at 4 min), the “highest cortical uptake (SUV)” value is given as roughly 6.40 SUV. Besides, the “uptake ratio at 4 min versus 120 min” value in data set [2] (brain cortex) was roughly 6.30. Also, in data set [2], the “blood brain barrier penetration” value is reported as “able to penetrate the blood brain barrier”.

Consider `COc1cc(-c2nc(-c3ccc4cc(OC(C)C)ccc4n3)no2)ccn1` [Compound 30, 3-(6-Isopropoxyquinolin-2-yl)-5-(2-methoxypyridin-4-yl)-1,2,4-oxadiazole], for which, at α-synuclein fibrils, the Ki was greater than 1000 nM. On the same count and under the same terms, the figure for `CC(C)Oc1ccc2nc(-c3noc(-c4ccn5ccnc5c4)n3)ccc2c1` [Compound 32, 5-(Imidazo[1,2-c]pyridin-7-yl)-3-(6-isopropoxyquinolin-2-yl)-1,2,4-oxadiazole] is greater than 1000 nM; for `COc1ccc2nc(-c3noc(-c4ccnc(OC)c4)n3)ccc2c1` [Compound 27, 5-(2-Methoxypyridin-4-yl)-3-(6-methoxyquinolin-2-yl)-1,2,4-oxadiazole] it is 630 nM. On PD-seeded fibrils, `COc1ccc2nc(-c3csc(C#N)c3)ccc2c1` [TZ64-020] came in with an EC50 of 37 nM and a Ki of 34 nM. The matching figures for `COc1ccc2nc(-c3coc(C=O)c3)ccc2c1` [TZ64-019]: 28 nM and 27 nM. For the compound `COc1ccc2nc(Nc3coc(C=O)c3)ccc2c1` [TZ64-91], on α-synuclein fibrils, the “potency in Thioflavin T assay” value is “high potency” and the Ki was found to be 18 nM.

At PD-seeded fibrils, `C=CCOCc1cc(-c2ccc3cc(OC)ccc3n2)cs1` [TZ66-8] showed an EC50 of 73 nM and a Ki of 68 nM. The matching figures for `COc1ccc(Nc2ccc3cccc(F)c3n2)cn1` [TZ64-016]: 45 nM and 42 nM. Regarding `COC(=O)c1cc(-c2ccc3cc(OC)ccc3n2)cs1` [TZ66-25], on α-synuclein fibrils, the “potency in Thioflavin T assay” value is “high potency” and the Ki came to 17 nM. In turn, `COc1ccc2nc(-c3noc(-c4cscn4)n3)ccc2c1` [TZ46-117] had a Ki at Fibrils 4174 of 156 nM. Consider `COCc1cc(-c2ccc3cc(OC)ccc3n2)cs1` [TZ66-9], for which, at PD-seeded fibrils, a half-maximal effect (EC50) was put at 84 nM and the affinity corresponds to a Ki of 78 nM. With `COc1ccc2nc(-c3coc(C=O)c3)ccc2c1` [TZ64-19], on α-synuclein fibrils, the “potency in Thioflavin T assay” value was “high potency” and the Ki is 10.4 nM. Taken in the same sequence, the figures for `COc1ccc(Nc2ccc3cc(I)ccc3n2)cn1` [TZ64-102] were “high potency” and 12 nM.

With `COc1ccc(Nc2ccc3c([N+](=O)[O-])cccc3n2)cn1` [TZ64-82], on α-synuclein fibrils, the “potency in Thioflavin T assay” value is “high potency” and the Ki came to 18 nM.

For the origin of these results see patent US12012394B2, “Alpha-synuclein ligands” (Washington University, priority 2018, dated 2024).
